Data on one substance can be found in patent US20250195673A1 (priority 2020, published 2025).

The assay addresses human NTSR1 (Homo sapiens, UniProt P30989).

Chain of human NTSR1 (P30989 whole entry): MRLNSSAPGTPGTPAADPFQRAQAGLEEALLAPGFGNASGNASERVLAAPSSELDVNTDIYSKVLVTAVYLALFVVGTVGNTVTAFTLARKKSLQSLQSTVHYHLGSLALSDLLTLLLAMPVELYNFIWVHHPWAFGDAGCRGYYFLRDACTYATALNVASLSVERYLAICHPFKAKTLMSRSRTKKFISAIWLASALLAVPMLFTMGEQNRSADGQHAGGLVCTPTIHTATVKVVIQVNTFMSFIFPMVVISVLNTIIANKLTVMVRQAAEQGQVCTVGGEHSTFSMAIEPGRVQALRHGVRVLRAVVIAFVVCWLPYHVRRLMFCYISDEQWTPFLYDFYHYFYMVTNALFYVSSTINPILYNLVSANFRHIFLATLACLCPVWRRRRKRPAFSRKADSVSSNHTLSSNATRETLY

On to murine transferrin [mTf], for which the IP1 accumulation result is on record as “not”.
